The values that follow come from patent publication US20130237582A1, “PHARMACEUTICAL COMBINATION OF PACLITAXEL AND A CDK INHIBITOR” (Piramal Enterprises Limited, priority 2010, published 2013).

One may read the IC50 as the concentration that inhibits the measured activity by half.

The subject of one test is BT-549. Briefly: Cytotoxicity assay using propidium iodide (PI). It counts as cell-based. As to conditions: Homo sapiens, 48 h treatment. On the procedure:
(§1) The propidium iodide fluorescence assay (PI) was carried out according to the procedure mentioned in Anticancer Drugs, 1995, 6, 522-32. The assay was developed to characterize the in vitro growth of human tumor cell lines as well as to test the cytotoxic activity of the compounds. Propidium iodide (PI) was used as a dye, which penetrates only damaged cellular membranes. Intercalation complexes are formed by PI with double-stranded DNA, which effect an amplification of the fluorescence. After freezing the cells at −20° C. for 24 h, PI had access to total DNA leading to total cell population counts. Background readings were obtained from cell-free wells containing media and propidium iodide. The human breast cancer cell lines (i.e. […] Control wells were treated with vehicle (DMSO). At the end of the incubation periods, the plates were assayed using PI cytotoxicity assay protocol. Percent cytoxicity was calculated at various drug concentrations and from the graph plotted the IC50 values were determined.

The test system of another test is HBL-100. Briefly: Cytotoxicity assay using propidium iodide (PI). The conditions noted are these: Homo sapiens. It counts as cell-based. On the procedure:
as §1

In a further test the test system is MDA-MB-361. In words: Cytotoxicity assay using propidium iodide (PI). It counts as cell-based. The conditions noted are these: Homo sapiens. On the procedure: as §1
The subject of a further test is MDA-MB-435-S. In words: Cytotoxicity assay using propidium iodide (PI). As to conditions: Homo sapiens. It counts as cell-based. On the procedure:
as §1

The next test concerns T47-D. In words: Cytotoxicity assay using propidium iodide (PI). As to conditions: Homo sapiens, T47D. It counts as cell-based. On the procedure: as §1
The next test deals with ZR-75-1. In words: Cytotoxicity assay using propidium iodide (PI). It counts as cell-based. The conditions noted are these: Homo sapiens. On the procedure:
as §1

The test system of test [1] is MDA-MB-231, MDA-MB-468 and MCF-7 cell lines. Briefly: Clonogenic assay or colony forming assay. The conditions noted are these: IC10, IC30, IC50 for 48 h, then 14 days drug-free. It counts as cell-based, human. On the procedure: MDA-MB-231, MDA-MB-468 and MCF-7 cell lines were seeded in RPMI 1460 with 10% FCS, at a density of 1500 cells/well in six well plates. […] The medium was removed at the end of the treatment and incubated in fresh medium (without drug) for 14 days. After 14 days the medium was aspirated and colonies were fixed with methanol and acetic acid mixture in the proportion of 2:1, rinsed with water and the fixation procedure was repeated. The plates were dried and colonies stained with 0.1% crystal violet for 5 min. The wells were finally rinsed with water and dried.

The next test relates to MDA-MB-231. In words: Cell cycle progression and apoptosis by flow cytometry (sub-G1). It counts as cell-based, human. The conditions noted are these: for % Apoptosis: 4.5 μM. On the procedure:
Time dependent effect of Compound A on cell cycle progression and apoptosis was evaluated in two breast cancer cell lines. The asynchronous human breast cancer cell lines MCF-7 (Her low, ER+, PR+, BRCA+/−allelic loss) and MDA-MB-231 cells were seeded in […] tissue culture flask at a density of 0.5×10^6 cells per flask in RPMI 1460 with 10% FCS. After 24 h, cells were treated with 4.5 μM of Compound A for 0, 24, 48 and 72 h. Both detached and adherent cells were harvested (trypsinised) at different time points as mentioned in Table 3. After washing in phosphate buffered saline (PBS), cells were fixed in ice-cold 70% ethanol and stored at −20° C. until further analysis.
Before analysis, cells were washed twice with PBS to remove the fixative and re-suspended in PBS containing 50 μg/mL propidium iodide and 50 μg/mL RNaseA. After incubation at room temperature (20-35° C.) for 20 min, cells were analyzed using flow cytometry. A Becton Dickinson FACS Calibur flow cytometer (BD, USA) was used for these studies. The argon ion laser set at 488 nm was used as an excitation source. Cells with DNA content between 2n and 4n were designated as being in G1, S and G2/M phases of the cell cycle, as defined by the level of red fluorescence. […] The number of cells in each cell cycle compartment was expressed as a percentage of the total number of cells present. The results are shown in Table 3 and graphically presented in FIG. 3A (MCF-7 cell lines) and FIG. 3B (MDA-MB-231 cell lines).
Comparison of the effect of Compound A and PARP inhibitor BSI-201 (Iniparib developed by Sanofi-Aventis. BSI-201 is prepared in-house) on cell cycle progression and apoptosis was evaluated in two TNBC cell lines. The asynchronous human TNBC cell lines MDA-MB-231 and MDA-MB-468 were seeded in […] tissue culture flask at a density of 0.5×10^6 cells per flask in RPMI 1460 with 10% FCS. After 24 h, cells were treated either with 1.5 and 3.0 μM of Compound A or 50 μM of PARP inhibitor BSI-201 for 72 h. After the incubation cells were harvested (trypsinised) and processed as given in example 6.
In general terms: In flow cytometry, cells or beads pass a laser one at a time.

The target of another test is T1, PARP (Homo sapiens, UniProt P09874).
T1 construct: endogenous in cells; host or cells: MDA-MB-231; MDA-MB-468
In words: PARP enzyme activity measured by PAR polymers (Western blot), MDA-MB-468. The test is classed as cell-based. The conditions noted are these: 1.5 μM and 5 μM, 24 h, hydrochloride. On the procedure: To study PARP enzyme activity, PAR polymer formation was measured. MDA-MB-231 and MDA-MB-468 cells were seeded in RPMI 1460 medium with 10% FCS in […] tissue culture flask and incubated for 24 h. These cells were treated at 1.5 μM and 5 μM of Compound A for 24 h. The cells were harvested (trypsinised) and lysed using lysis buffer. Western blotting (Molecular Cancer Therapeutics, 2007, 6, 918-925) was done with specific antibody to PAR.
Correlation of PARP activity and cell cycle proteins cyclin D1, total Rb and pRb 780 were studied in two TNBC cell lines viz. MDA-MB-468 and MDA-MB-231. MDA-MB-231 and MDA-MB-468 cells were seeded in RPMI 1460 medium with 10% FCS in […] tissue culture flask and incubated for 24 h. These cells were treated at 1.5 μM and 5 μM Compound A for 24 h. The cells were harvested (trypsinised) and lysed using lysis buffer. Western blotting was carried out (Molecular Cancer […], 2007, 6, 918-925) using specific antibody to PAR, PARP, cyclin D1, CDK4 and pRb Ser 780.
A general note: Immunoblotting shows a protein as a band on a membrane.

SMILES strings stand for the structures. Entries after “also recorded” stand apart in the source; their conditions may differ.

T1 sequence (P09874 2-1014 limits assumed): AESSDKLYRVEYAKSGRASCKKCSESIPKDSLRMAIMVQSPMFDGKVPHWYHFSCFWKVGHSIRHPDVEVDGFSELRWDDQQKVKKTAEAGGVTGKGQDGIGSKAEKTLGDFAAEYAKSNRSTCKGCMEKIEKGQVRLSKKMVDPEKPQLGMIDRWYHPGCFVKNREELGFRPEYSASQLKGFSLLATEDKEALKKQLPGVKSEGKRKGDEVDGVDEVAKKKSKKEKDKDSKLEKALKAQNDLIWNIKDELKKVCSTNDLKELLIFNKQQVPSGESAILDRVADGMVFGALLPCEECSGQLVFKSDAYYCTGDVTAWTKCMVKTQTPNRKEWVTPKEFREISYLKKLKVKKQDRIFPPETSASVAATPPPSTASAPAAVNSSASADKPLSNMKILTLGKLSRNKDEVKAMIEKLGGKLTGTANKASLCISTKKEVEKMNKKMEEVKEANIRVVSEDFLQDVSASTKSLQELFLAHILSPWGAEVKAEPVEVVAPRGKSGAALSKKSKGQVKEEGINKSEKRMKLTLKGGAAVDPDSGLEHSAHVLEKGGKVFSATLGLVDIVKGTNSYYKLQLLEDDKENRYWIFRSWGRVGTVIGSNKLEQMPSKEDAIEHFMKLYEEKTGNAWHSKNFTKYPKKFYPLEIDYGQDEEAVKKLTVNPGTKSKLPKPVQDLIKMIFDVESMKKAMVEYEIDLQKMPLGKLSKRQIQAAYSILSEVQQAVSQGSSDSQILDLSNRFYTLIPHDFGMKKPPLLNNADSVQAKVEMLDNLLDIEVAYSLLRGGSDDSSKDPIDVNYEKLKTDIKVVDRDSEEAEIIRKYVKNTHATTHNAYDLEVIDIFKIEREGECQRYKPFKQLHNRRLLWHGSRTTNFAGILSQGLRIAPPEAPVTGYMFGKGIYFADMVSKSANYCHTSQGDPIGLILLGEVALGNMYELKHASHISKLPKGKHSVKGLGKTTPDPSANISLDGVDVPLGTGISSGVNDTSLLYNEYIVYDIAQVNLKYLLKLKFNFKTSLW

Turning to `CN1CC[C@@H](c2c(O)cc(O)c3c(=O)cc(-c4ccccc4Cl)oc23)[C@@H]1CO.Cl` [Compound A, (+)-trans-2-(2-Chloro-phenyl)-5,7-dihydroxy-8-(2-hydroxymethyl-1-methyl-pyrrolidin-3-yl)-chromen-4-one hydrochloride], the IC50 with BT-549 was 800 nM; in the test on HBL-100, 510 nM; in the test with MDA-MB-361, 750 nM; in the test on MDA-MB-435-S, 300 nM; in the test with T47-D, 500 nM; with ZR-75-1 it was 900 nM. Further, the colony forming potential entry in [1] was “inhibit the colony forming potential in a dose dependent manner”. Moreover, the “% apoptosis at 72 h” value is given as 27.45% in the test with MDA-MB-231 (1.5 μM, 72 h) and 41.53% in the test with MDA-MB-231 (3 μM, 72 h). Moreover, the “% Apoptosis” value in the test on MDA-MB-231 (0 h) is listed as 1%; in the test on MDA-MB-231 (24 h) it was 45%; in the test with MDA-MB-231 (48 h) it was 85%; in the test on MDA-MB-231 (72 h), 85%. The “PARP enzyme activity (PAR polymer formation)” value on PARP is given as “the formation of PAR polymers is not inhibited; also recorded: no change in the PAR polymer formation”.
